Results published in patent US6872690B2, “Herbicidal 2-alkynyl-pyri (mi) dines” (WYETH, priority 2001, dated 2005).

Tests used:
Format in all cases: in vivo
Glycine max [1] = assay: Post-emergence herbicidal activity test; conditions: 2-4 weeks after treatment
Summary of the method: (§1)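 Acetone stock diluted in water; post-emergence spray, ~0.025–0.4 kg/ha per pot. Greenhouse, standard care. Visual rating at 2–4 wk post-treatment.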

Echinochloa crus-galli [2] = assay: Post-emergence herbicidal activity test; conditions: 2-4 weeks after treatment
Summary of the method: as §1

Zea mays [3] = assay: Post-emergence herbicidal activity test; conditions: 2-4 weeks after treatment
Summary of the method: as §1

Alopecurus myosuroides [4] = assay: Post-emergence herbicidal activity test; conditions: 2-4 weeks after treatment
Summary of the method: as §1

Ipomoea hederacea [5] = assay: Post-emergence herbicidal activity test; conditions: 2-4 weeks after treatment
Summary of the method: as §1

Ambrosia artemisifolia [6] = assay: Post-emergence herbicidal activity test; conditions: 2-4 weeks after treatment
Summary of the method: as §1

Abutilon theophrasti [7] = assay: Post-emergence herbicidal activity test; conditions: 2-4 weeks after treatment
Summary of the method: as §1

Setaria viridis [8] = assay: Post-emergence herbicidal activity test; conditions: 2-4 weeks after treatment
Summary of the method: as §1

Matricaria inodora [9] = assay: Post-emergence herbicidal activity test; conditions: 2-4 weeks after treatment
Summary of the method: as §1

Triticum aestivum [10] = assay: Post-emergence herbicidal activity test; conditions: 2-4 weeks after treatment
Summary of the method: as §1

Glycine max [11] = assay: Pre-emergence test; conditions: 3 weeks after treatment
Summary of the method: (§2)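 Seeds sown in horticultural loam; compound in acetone containing 0.4% wetting agent, then diluted in water; formulation sprayed onto the soil surface at 900 L/ha; rates of 0.013, 0.025, 0.100 and 0.400 kg/ha; pots rated after 2–4 weeks against untreated controls.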

Echinochloa crus-galli [12] = assay: Pre-emergence test; conditions: 3 weeks after treatment
Summary of the method: as §2

Zea mays [13] = assay: Pre-emergence test; conditions: 3 weeks after treatment
Summary of the method: as §2

Alopecurus myosuroides [14] = assay: Pre-emergence test; conditions: 3 weeks after treatment
Summary of the method: as §2

Ipomoea hederacea [15] = assay: Pre-emergence test; conditions: 3 weeks after treatment
Summary of the method: as §2

Ambrosia artemisifolia [16] = assay: Pre-emergence test; conditions: 3 weeks after treatment
Summary of the method: as §2

Abutilon theophrasti [17] = assay: Pre-emergence test; conditions: 3 weeks after treatment
Summary of the method: as §2

Setaria viridis [18] = assay: Pre-emergence test; conditions: 3 weeks after treatment
Summary of the method: as §2

Matricaria inodora [19] = assay: Pre-emergence test; conditions: 3 weeks after treatment
Summary of the method: as §2

Triticum aestivum [20] = assay: Pre-emergence test; conditions: 3 weeks after treatment
Summary of the method: as §2

Cassia obtusifolia = assay: Pre-emergence test; conditions: 3 weeks after treatment
Summary of the method: as §2

Digitaria sanguinalis = assay: Pre-emergence test; conditions: 0.400 kg/ha, 3 weeks after treatment
Summary of the method: as §2

Stellaria media = assay: Pre-emergence test; conditions: 0.400 kg/ha, 3 weeks after treatment
Summary of the method: as §2

Lamium purpureum = assay: Pre-emergence test; conditions: 0.400 kg/ha, 3 weeks after treatment
Summary of the method: as §2

Galium aparine = assay: Pre-emergence test; conditions: 0.400 kg/ha, 3 weeks after treatment
Summary of the method: as §2

Orysa sativa = assay: Pre-emergence test; conditions: 0.400 kg/ha, 3 weeks after treatment
Summary of the method: as §2

Cc1cc(C#Cc2ccc(F)cc2)nc(Oc2cc(C(F)(F)F)nn2C)c1 [Example 2, 4-methyl-6-(4-fluorophenylethynyl)-2-(1-methyl-3-trifluoromethylpyrazol-5-yloxy)-pyridine]
Post-emergence application GLXMA (Glycine max [1]; 0.025 kg/ha): 4 (4-Injury) | Post-emergence application GLXMA (Glycine max [1]; 0.100 kg/ha): 5 (5-Definite injury) | Post-emergence application GLXMA (Glycine max [1]; 0.400 kg/ha): 7 (7-Good herbicidal effect) | Post-emergence application ECHCG (Echinochloa crus-galli [2]; 0.025 kg/ha): 3 (3-Moderate effect) | Post-emergence application ECHCG (Echinochloa crus-galli [2]; 0.100 kg/ha): 4 (4-Injury) | Post-emergence application ECHCG (Echinochloa crus-galli [2]; 0.400 kg/ha): 8 (8-Approaching complete kill) | Post-emergence application ZEAMX (Zea mays [3]; 0.025 kg/ha): 1 (1-Trace effect) | Post-emergence application ZEAMX (Zea mays [3]; 0.100 kg/ha): 2 (2-Slight effect) | Post-emergence application ZEAMX (Zea mays [3]; 0.400 kg/ha): 2 (2-Slight effect) | Post-emergence application ALOMY (Alopecurus myosuroides [4]; 0.025 kg/ha): 2 (2-Slight effect) | Post-emergence application ALOMY (Alopecurus myosuroides [4]; 0.100 kg/ha): 3 (3-Moderate effect) | Post-emergence application ALOMY (Alopecurus myosuroides [4]; 0.400 kg/ha): 5 (5-Definite injury) | Post-emergence application IPOHE (Ipomoea hederacea [5]; 0.025 kg/ha): 7 (7-Good herbicidal effect) | Post-emergence application IPOHE (Ipomoea hederacea [5]; 0.100 kg/ha): 7 (7-Good herbicidal effect) | Post-emergence application IPOHE (Ipomoea hederacea [5]; 0.400 kg/ha): 9 (9-Complete kill) | Post-emergence application AMBEL (Ambrosia artemisifolia [6]; 0.025 kg/ha): 2 (2-Slight effect) | Post-emergence application AMBEL (Ambrosia artemisifolia [6]; 0.100 kg/ha): 5 (5-Definite injury) | Post-emergence application AMBEL (Ambrosia artemisifolia [6]; 0.400 kg/ha): 7 (7-Good herbicidal effect) | Post-emergence application ABUTH (Abutilon theophrasti [7]; 0.025 kg/ha): 2 (2-Slight effect) | Post-emergence application ABUTH (Abutilon theophrasti [7]; 0.100 kg/ha): 6 (6-Herbicidal effect) | Post-emergence application ABUTH (Abutilon theophrasti [7]; 0.400 kg/ha): 8 (8-Approaching complete kill) | Post-emergence application SETVI (Setaria viridis [8]; 0.025 kg/ha): 4 (4-Injury) | Post-emergence application SETVI (Setaria viridis [8]; 0.100 kg/ha): 7 (7-Good herbicidal effect) | Post-emergence application SETVI (Setaria viridis [8]; 0.400 kg/ha): 9 (9-Complete kill) | Post-emergence application MATIN (Matricaria inodora [9]; 0.025 kg/ha): 2 (2-Slight effect) | Post-emergence application MATIN (Matricaria inodora [9]; 0.100 kg/ha): 5 (5-Definite injury) | Post-emergence application MATIN (Matricaria inodora [9]; 0.400 kg/ha): 8 (8-Approaching complete kill) | Post-emergence application TRZWA (Triticum aestivum [10]; 0.025 kg/ha): 2 (2-Slight effect) | Post-emergence application TRZWA (Triticum aestivum [10]; 0.100 kg/ha): 2 (2-Slight effect) | Post-emergence application TRZWA (Triticum aestivum [10]; 0.400 kg/ha): 3 (3-Moderate effect) | Assessment (pre-emergence application) GLXMA (Glycine max [11]; 0.013 kg/ha): 0 (0-No effect) | Assessment (pre-emergence application) GLXMA (Glycine max [11]; 0.025 kg/ha): 1 (1-Trace effect) | Assessment (pre-emergence application) GLXMA (Glycine max [11]; 0.100 kg/ha): 2 (2-Slight effect) | Assessment (pre-emergence application) GLXMA (Glycine max [11]; 0.400 kg/ha): 3 (3-Moderate effect) | Assessment (pre-emergence application) ECHCG (Echinochloa crus-galli [12]; 0.013 kg/ha): 1 (1-Trace effect) | Assessment (pre-emergence application) ECHCG (Echinochloa crus-galli [12]; 0.025 kg/ha): 2 (2-Slight effect) | Assessment (pre-emergence application) ECHCG (Echinochloa crus-galli [12]; 0.100 kg/ha): 6 (6-Herbicidal effect) | Assessment (pre-emergence application) ECHCG (Echinochloa crus-galli [12]; 0.400 kg/ha): 7 (7-Good herbicidal effect) | Assessment (pre-emergence application) ZEAMX (Zea mays [13]; 0.013 kg/ha): 0 (0-No effect) | Assessment (pre-emergence application) ZEAMX (Zea mays [13]; 0.025 kg/ha): 0 (0-No effect) | Assessment (pre-emergence application) ZEAMX (Zea mays [13]; 0.100 kg/ha): 1 (1-Trace effect) | Assessment (pre-emergence application) ZEAMX (Zea mays [13]; 0.400 kg/ha): 2 (2-Slight effect) | Assessment (pre-emergence application) ALOMY (Alopecurus myosuroides [14]; 0.013 kg/ha): 1 (1-Trace effect) | Assessment (pre-emergence application) ALOMY (Alopecurus myosuroides [14]; 0.025 kg/ha): 2 (2-Slight effect) | Assessment (pre-emergence application) ALOMY (Alopecurus myosuroides [14]; 0.100 kg/ha): 5 (5-Definite injury) | Assessment (pre-emergence application) ALOMY (Alopecurus myosuroides [14]; 0.400 kg/ha): 8 (8-Approaching complete kill) | Assessment (pre-emergence application) IPOHE (Ipomoea hederacea [15]; 0.013 kg/ha): 0 (0-No effect) | Assessment (pre-emergence application) IPOHE (Ipomoea hederacea [15]; 0.025 kg/ha): 1 (1-Trace effect) | Assessment (pre-emergence application) IPOHE (Ipomoea hederacea [15]; 0.100 kg/ha): 2 (2-Slight effect) | Assessment (pre-emergence application) IPOHE (Ipomoea hederacea [15]; 0.400 kg/ha): 6 (6-Herbicidal effect) | Assessment (pre-emergence application) MBEL (Ambrosia artemisifolia [16]; 0.013 kg/ha): 0 (0-No effect) | Assessment (pre-emergence application) MBEL (Ambrosia artemisifolia [16]; 0.025 kg/ha): 2 (2-Slight effect) | Assessment (pre-emergence application) MBEL (Ambrosia artemisifolia [16]; 0.100 kg/ha): 6 (6-Herbicidal effect) | Assessment (pre-emergence application) MBEL (Ambrosia artemisifolia [16]; 0.400 kg/ha): 9 (9-Complete kill) | Assessment (pre-emergence application) ABUTH (Abutilon theophrasti [17]; 0.013 kg/ha): 0 (0-No effect) | Assessment (pre-emergence application) ABUTH (Abutilon theophrasti [17]; 0.025 kg/ha): 1 (1-Trace effect) | Assessment (pre-emergence application) ABUTH (Abutilon theophrasti [17]; 0.100 kg/ha): 2 (2-Slight effect) | Assessment (pre-emergence application) ABUTH (Abutilon theophrasti [17]; 0.400 kg/ha): 3 (3-Moderate effect) | Assessment (pre-emergence application) SETVI (Setaria viridis [18]; 0.013 kg/ha): 3 (3-Moderate effect) | Assessment (pre-emergence application) SETVI (Setaria viridis [18]; 0.025 kg/ha): 4 (4-Injury) | Assessment (pre-emergence application) SETVI (Setaria viridis [18]; 0.100 kg/ha): 8 (8-Approaching complete kill) | Assessment (pre-emergence application) SETVI (Setaria viridis [18]; 0.400 kg/ha): 9 (9-Complete kill) | Assessment (pre-emergence application) MATIN (Matricaria inodora [19]; 0.013 kg/ha): 1 (1-Trace effect) | Assessment (pre-emergence application) MATIN (Matricaria inodora [19]; 0.025 kg/ha): 5 (5-Definite injury) | Assessment (pre-emergence application) MATIN (Matricaria inodora [19]; 0.100 kg/ha): 9 (9-Complete kill) | Assessment (pre-emergence application) MATIN (Matricaria inodora [19]; 0.400 kg/ha): 9 (9-Complete kill) | Assessment (pre-emergence application) TRZWA (Triticum aestivum [20]; 0.013 kg/ha): 0 (0-No effect) | Assessment (pre-emergence application) TRZWA (Triticum aestivum [20]; 0.025 kg/ha): 0 (0-No effect) | Assessment (pre-emergence application) TRZWA (Triticum aestivum [20]; 0.100 kg/ha): 2 (2-Slight effect) | Assessment (pre-emergence application) TRZWA (Triticum aestivum [20]; 0.400 kg/ha): 4 (4-Injury) | Assessment (pre-emergence application) CASOB (Cassia obtusifolia; 0.013 kg/ha): 0 (0-No effect) | Assessment (pre-emergence application) CASOB (Cassia obtusifolia; 0.025 kg/ha): 1 (1-Trace effect) | Assessment (pre-emergence application) CASOB (Cassia obtusifolia; 0.100 kg/ha): 3 (3-Moderate effect) | Assessment (pre-emergence application) CASOB (Cassia obtusifolia; 0.400 kg/ha): 7 (7-Good herbicidal effect)

Cc1cc(C#C[Si](C)(C)C)nc(Oc2cc(C(F)(F)F)nn2C)c1 [Example 14]
Post-emergence application GLXMA (Glycine max [1]; 0.200 kg/ha): 4 (4-Injury) | Post-emergence application ECHCG (Echinochloa crus-galli [2]; 0.200 kg/ha): 1 (1-Trace effect) | Post-emergence application ZEAMX (Zea mays [3]; 0.200 kg/ha): 1 (1-Trace effect) | Post-emergence application ALOMY (Alopecurus myosuroides [4]; 0.200 kg/ha): 3 (3-Moderate effect) | Post-emergence application IPOHE (Ipomoea hederacea [5]; 0.200 kg/ha): 8 (8-Approaching complete kill) | Post-emergence application AMBEL (Ambrosia artemisifolia [6]; 0.200 kg/ha): 3 (3-Moderate effect) | Post-emergence application ABUTH (Abutilon theophrasti [7]; 0.200 kg/ha): 1 (1-Trace effect) | Post-emergence application SETVI (Setaria viridis [8]; 0.200 kg/ha): 3 (3-Moderate effect) | Post-emergence application MATIN (Matricaria inodora [9]; 0.200 kg/ha): 5 (5-Definite injury) | Post-emergence application TRZWA (Triticum aestivum [10]; 0.200 kg/ha): 1 (1-Trace effect) | Assessment (pre-emergence application) GLXMA (Glycine max [11]; 0.400 kg/ha): 2 (2-Slight effect) | Assessment (pre-emergence application) ECHCG (Echinochloa crus-galli [12]; 0.400 kg/ha): 5 (5-Definite injury) | Assessment (pre-emergence application) ZEAMX (Zea mays [13]; 0.400 kg/ha): 1 (1-Trace effect) | Assessment (pre-emergence application) ALOMY (Alopecurus myosuroides [14]; 0.400 kg/ha): 7 (7-Good herbicidal effect) | Assessment (pre-emergence application) IPOHE (Ipomoea hederacea [15]; 0.400 kg/ha): 1 (1-Trace effect) | Assessment (pre-emergence application) MBEL (Ambrosia artemisifolia [16]; 0.400 kg/ha): 9 (9-Complete kill) | Assessment (pre-emergence application) ABUTH (Abutilon theophrasti [17]; 0.400 kg/ha): 0 (0-No effect) | Assessment (pre-emergence application) DIGSA (Digitaria sanguinalis): 9 (9-Complete kill) | Assessment (pre-emergence application) SETVI (Setaria viridis [18]; 0.400 kg/ha): 5 (5-Definite injury) | Assessment (pre-emergence application) MATIN (Matricaria inodora [19]; 0.400 kg/ha): 8 (8-Approaching complete kill) | Assessment (pre-emergence application) STEME (Stellaria media): 9 (9-Complete kill) | Assessment (pre-emergence application) LAMPU (Lamium purpureum): 9 (9-Complete kill) | Assessment (pre-emergence application) GALAP (Galium aparine): 1 (1-Trace effect) | Assessment (pre-emergence application) TRZWA (Triticum aestivum [20]; 0.400 kg/ha): 1 (1-Trace effect) | Assessment (pre-emergence application) CASOB (Cassia obtusifolia; 0.400 kg/ha): 3 (3-Moderate effect) | Assessment (pre-emergence application) ORYSA (Orysa sativa): 0 (0-No effect)
